Measurements: patent publication US9549917B2, “Heterocyclic-substituted benzofuran derivatives and methods of use thereof for the treatment of viral diseases” (priority 2011, dated 2017)

How the values were obtained:
[1] = system: HCV replicon genotype 1b; assay: HCV replicon assay, genotype 1b (cell ELISA for NS3/4A); format: cell-based; conditions: Hepatitis C virus, 96 h, read-out: 1b IC50 (nM)
Description: (§1) Measurement of inhibition by compounds was performed using the HCV replicon system. Several different replicons encoding different HCV genotypes or mutations were used. In addition, potency measurements were made using different formats of the replicon assay, including different ways of measurements and different plating formats. See Jan M. Vrolijk et al., A replicons-based bioassay for the measurement of interferons in patients with chronic hepatitis C, 110 J. V[…] 201 (2003); Steven S. Carroll et al., Inhibition of Hepatitis C Virus RNA Replication by 2′-Modified Nucleoside Analogs, 278(14) J. BIOLOGICAL CHEMISTRY 11979 (2003). However, the underlying principles are common to all of these determinations, and are outlined below.
(§2) Stable neomycin phosphotransferase encoding replicons-harboring cell lines were used, so all cell lines were maintained under G418 selection prior to the assay. Potency was determined using a cell ELISA assay with an antibody to the replicons encoded NS3/4a protease. See Caterina Trozzi et al., In Vitro Selection and Characterization of Hepatitis C Virus Serine Protease Variants Resistant to an Active-Site Peptide Inhibitor, 77(6) J. Virol. 3669 (2003). To initiate an assay, replicon cells were plated in the presence of a dilution series of test compound in the absence of G418. Typically, the assays were performed in a 96-well plate formate for manual operation, or a 384-well plate format for automated assay. Replicon cells and compound were incubated for 96 hours. At the end of the assay, cells were washed free of media and compound, and the cells were then lysed. RNA was quantified indirectly through detection of replicon-encoded NS3/4A protein levels, through an ELISA-based assay with an antibody specific for NS3/4A. IC50 determinations were calculated as a percentage of a DMSO control by fitting the data to a four-parameter fit function and the data obtained is provided in the table below.
(§3) Data for selected compounds of the present invention was obtained for genotypes 1a and 1b using this method and is provided in the table below: […]

[2] = system: HCV replicon genotype 1a; assay: HCV replicon assay, genotype 1a (cell ELISA for NS3/4A); format: cell-based; conditions: Hepatitis C virus, 96 h, read-out: 1a IC50 (nM)
Description: as §1, §2, §3

SMILES | IC50 [1] [nM] | IC50 [2] [nM]
CNC(=O)c1c(-c2ccc(F)cc2)oc2cc(N(C)S(C)(=O)=O)c(-c3cnc(OC)c(-c4cc5cccc(F)c5[nH]4)n3)cc12 [Compound 226] | 7.2 | 3.4
CNC(=O)c1c(-c2ccc(F)cc2)oc2cc(N(C)S(C)(=O)=O)c(-c3cc(-c4cc5c(C#N)cccc5[nH]4)cnn3)cc12 [Compound 230] | 1.9 | 1.4
CNC(=O)c1c(-c2ccc(F)cc2)oc2cc(N(C)S(C)(=O)=O)c(-c3ccc(O)c(-c4cc5c(C#N)nccc5[nH]4)n3)cc12 [Compound 231] | 47 | 339
CNC(=O)c1c(-c2ccc(F)cc2)oc2cc(N(C)S(C)(=O)=O)c(-c3ccnc(-c4cc5c(C#N)cccc5[nH]4)c3)cc12 [Compound 233] | 0.4 | 0.1
CNC(=O)c1c(-c2ccc(F)cc2)oc2cc(N(CCCF)S(C)(=O)=O)c(-c3cncc(-c4cc5ccccc5[nH]4)c3)cc12 [Compound 244] | 4.7 | 2.7
CNC(=O)c1c(-c2ccc(F)cc2)oc2cc(N(C)S(C)(=O)=O)c(-c3ccc(OC)c(-c4cc5ccccn5n4)n3)cc12 [Compound 254, 2-(4-fluorophenyl)-5-(5-methoxy-6-(pyrazolo[1,5-a]pyridin-2-yl)pyridin-2-yl)-N-methyl-6-(N-methylmethylsulfonamido)benzofuran-3-carboxamide] | 26 | 214
CNC(=O)c1c(-c2ccc(F)cc2)oc2cc(N(C)S(C)(=O)=O)c(-c3ccc(O)c(-c4cc5ccccn5n4)n3)cc12 [Compound 255] | 104 | 1450
CNC(=O)c1c(-c2ccc(F)cc2)oc2cc(N(C)S(C)(=O)=O)c(-c3nnc(-c4cc5c(F)cccc5[nH]4)o3)cc12 [Compound 256, 5-(5-(4-fluoro-1H-indol-2-yl)-1,3,4-oxadiazol-2-yl)-2-(4-fluorophenyl)-N-methyl-6-(N-methylmethylsulfonamido)benzofuran-3-carboxamide] | 0.7 | 0.4
CNC(=O)c1c(-c2ccc(F)cc2)oc2cc(N(C)S(C)(=O)=O)c(-c3ccc(O)c(C4Cc5c(F)cccc5N4)n3)cc12 (centres unmarked) [Compound 257, 5-(6-(4-fluoroindolin-2-yl)-5-hydroxypyridin-2-yl)-2-(4-fluorophenyl)-N-methyl-6-(N-methylmethylsulfonamido)benzofuran-3-carboxamide] | 10 | 13
CNC(=O)c1c(-c2ccc(F)cc2)oc2cc(N(C)S(C)(=O)=O)c(-c3nc(-c4cc5c(F)cccc5[nH]4)ns3)cc12 [Compound 258] | 2.5 | 2.6
CNC(=O)c1c(-c2ccc(F)cc2)oc2cc(N(C)S(C)(=O)=O)c(-c3cnnc(-c4cc5c(F)cccc5[nH]4)c3)cc12 [Compound 259] | 2.6 | 1.1
CNC(=O)c1c(-c2ccc(F)cc2)oc2cc(N(C)S(C)(=O)=O)c(-c3cnnc(-c4cc5c(C#N)cccc5[nH]4)c3)cc12 [Compound 260] | 1.1 | 0.7
CNC(=O)c1c(-c2ccc(F)cc2)oc2cc(N(C)S(C)(=O)=O)c(-c3cc(-c4cc5c(F)cccc5[nH]4)cnn3)cc12 [Compound 263] | 2.4 | 3.2
CNC(=O)c1c(-c2ccc(F)cc2)oc2cc(N(C)S(C)(=O)=O)c(-c3cnnc(-n4ncc5c(F)cccc54)c3)cc12 [Compound 264] | 10 | 25
CNC(=O)c1c(-c2ccc(F)cc2)oc2cc(N(C)S(C)(=O)=O)c(-c3cnnc(-n4cc5c(F)cccc5n4)c3)cc12 [Compound 265] | 4.1 | 4.5
CNC(=O)c1c(-c2ccc(F)cc2)oc2cc(N(C)S(C)(=O)=O)c(-c3cc(-c4cc5c(C#N)cccc5[nH]4)nnc3C)cc12 [Compound 266] | 3 | 3.2
CNC(=O)c1c(-c2ccc(F)cc2)oc2cc(N(C)S(C)(=O)=O)c(-c3cc(-c4cc5c(F)cccc5[nH]4)nnc3C)cc12 [Compound 268] | 6.1 | 5.3
CNC(=O)c1c(-c2ccc(F)cc2)oc2ccc(-c3cc(-c4cc5c(F)cccc5[nH]4)nnc3C)cc12 [Compound 270] | 36 | 42
CNC(=O)c1c(-c2ccc(F)cc2)oc2cc(N(C)S(C)(=O)=O)c(-c3cc(-c4nc5ccccc5o4)cnn3)cc12 [Compound 271] | 10 | 14

SMILES | IC50 [1] [nM] | IC50 [2] [nM]
CNC(=O)c1c(-c2ccc(F)cc2)oc2cc(N(C)S(C)(=O)=O)c(-c3cc(-c4cc5c(F)cccc5[nH]4)nc(N)n3)cc12 [Compound 272] | 4.4 | 4.2
CNC(=O)c1c(-c2ccc(F)cc2)oc2cc(N(C)S(C)(=O)=O)c(-c3cnnc(-c4cc5c(C#N)cccc5n4C)c3)cc12 [Compound 273] | 0.2 | 0.3
CNC(=O)c1c(-c2ccc(F)cc2)oc2cc(N(C)S(C)(=O)=O)c(-c3cnnc(-c4cc5c(F)cccc5n4CCO)c3)cc12 [Compound 277] | 6.7 | 7.4
CNC(=O)c1c(-c2ccc(F)cc2)oc2cc(N(C)S(C)(=O)=O)c(-c3cc(-c4cc5c(F)cccc5n4CCOC)cnn3)cc12 [Compound 278] | 14 | 37
CNC(=O)c1c(-c2ccc(F)cc2)oc2cc(N(C)S(C)(=O)=O)c(-c3cnnc(-c4cc5c(F)cccc5n4CCOC)c3)cc12 [Compound 279] | 3.2 | 2.5
CNC(=O)c1c(-c2ccc(F)cc2)oc2cc(N(C)S(C)(=O)=O)c(-c3cnnc(N4Cc5cccc(F)c5C4)c3)cc12 [Compound 280] | 1.4 | 1.2
CNC(=O)c1c(-c2ccc(F)cc2)oc2cc(N(C)S(C)(=O)=O)c(-c3cnnc(N4Cc5c(F)cccc5C4=O)c3)cc12 [Compound 281] | 4.8 | 22.3
CNC(=O)c1c(-c2ccc(F)cc2)oc2cc(N(C)S(C)(=O)=O)c(-c3cnnc(-c4cc5c(OC)cccc5[nH]4)c3)cc12 [Compound 282] | 1.8 | 3.3
CNC(=O)c1c(-c2ccc(F)cc2)oc2cc(N(C)S(C)(=O)=O)c(-c3cnnc(-c4cc5cccnc5n4C)c3)cc12 [Compound 284] | 2.7 | 6
CNC(=O)c1c(-c2ccc(F)cc2)oc2cc(N(C)S(C)(=O)=O)c(-c3cnnc(-c4cc5ncccc5[nH]4)c3)cc12 [Compound 286] | 5 | 17
CNC(=O)c1c(-c2ccc(F)cc2)oc2cc(N(C)S(C)(=O)=O)c(-c3cnnc(-c4nc5ccccc5s4)c3)cc12 [Compound 287] | 5.1 | 3.2
CNC(=O)c1c(-c2ccc(F)cc2)oc2cc(N(C)S(C)(=O)=O)c(-c3cnnc(-c4[nH]c5ccccc5c4C)c3)cc12 [Compound 288] | 25 | 75
CNC(=O)c1c(-c2ccc(F)cc2)oc2cc(N(C)S(C)(=O)=O)c(-c3cc(-c4[nH]c5ccccc5c4C)cnn3)cc12 [Compound 289] | 22 | 54
CNC(=O)c1c(-c2ccc(F)cc2)oc2cc(N(C)S(C)(=O)=O)c(-c3cc(-c4cc5c(F)cccc5[nH]4)ncc3-c3cc4c(F)cccc4[nH]3)cc12 [Compound 290] | 10 | 9.8
CNC(=O)c1c(-c2ccc(F)cc2)oc2cc(N(C)S(C)(=O)=O)c(-c3cc(N4Cc5cccc(F)c5C4)ncc3Cl)cc12 [Compound 291] | 8 | 4.8
CNC(=O)c1c(-c2ccc(F)cc2)oc2cc(N(C)S(C)(=O)=O)c(-c3cc(-c4cc5c(F)cccc5[nH]4)ncc3Cl)cc12 [Compound 292] | 13 | 12
CNC(=O)c1c(-c2ccc(F)cc2)oc2cc(N(C)S(C)(=O)=O)c(-c3cc(-c4cc5c(F)cccc5[nH]4)ncc3OC)cc12 [Compound 293] | 41 | 131
CNC(=O)c1c(-c2ccc(F)cc2)oc2cc(N(C)S(C)(=O)=O)c(-c3cc(N4Cc5cccc(F)c5C4)ncc3OC)cc12 [Compound 294] | 22 | 54
